Consider 15 compounds from patent publication US20090270443A1, “1-AMINO IMIDAZO-CONTAINING COMPOUNDS AND METHODS” (priority 2004, published 2009).

In turn, `CC(C)Nn1c(CO)nc2c(N)nc3cccnc3c21` [Example 6, [4-Amino-1-(isopropylamino)-1H-imidazo[4,5-c][1,5]naphthyridin-2-yl]methanol] returned a melting point of 242 to 243 °C. For the compound `Cc1nc(N)c2nc(CO)n(NCc3cccnc3)c2c1C` [Example 20, [4-Amino-6,7-dimethyl-1-(pyridin-3-yl)methylamino-1H-imidazo[4,5-c]pyridin-2-yl]methanol], the melting point fell in the range of 258 to 260 °C. Compound `CCc1nc2c(N)nc3cccnc3c2n1NCCCNS(C)(=O)=O` [Example 8, N-{3-[(4-amino-2-ethyl-1H-imidazo[4,5-c][1,5]naphthyridin-1-yl)amino]propyl}methanesulfonamide] gave a melting point of 176 to 178 °C. The result for `COCCc1nc2c(N)nc(C)c(C)c2n1NC1CCOCC1` [Example 51, 2-(2-Methoxyethyl)-6,7-dimethyl-N^1-(tetrahydropyran-4-yl)-1H-imidazo[4,5-c]pyridine-1,4-diamine] reads 110 to 120 °C; that for `Cc1nc(N)c2nc(C)n(NCCCNS(C)(=O)=O)c2c1C` [Example 15, N-{3-[(4-Amino-2,6,7-trimethyl-1H-imidazo[4,5-c]pyridin 1-yl)amino]propyl}methanesulfonamide], 215 to 217 °C; that for `CCOCc1nc2c(N)nc(C)c(C)c2n1NCCCS(C)(=O)=O` [Example 39, 2-(Ethoxymethyl)-6,7-dimethyl-N^1-[3-(methylsulfonyl)propyl]-1H-imidazo[4,5-c]pyridine-1,4-diamine], 150 to 155 °C. In turn, `CCOCc1nc2c(N)nc(C)c(C)c2n1NC1CCOCC1` [Example 25, 2-Ethoxymethyl-6,7-dimethyl-N^1-(tetrahydropyran-4-yl)-1H-imidazo[4,5-c]pyridine-1,4-diamine] came in with a melting point of 120 to 122 °C. Under `Cc1nc(N)c2nc(CO)n(NC3CCCC3)c2c1C` [Example 47, (4-Amino-1-cyclopentylamino-6,7-dimethyl-1H-imidazo[4,5-c]pyridin-2-yl)methanol] stands 254 to 256 °C.

Regarding `Cc1nc(N)c2ncn(N(C)C)c2c1C` [Example 10, N^1,N^1,6,7-Tetramethyl-1H-imidazo[4,5-c]pyridine-1,4-diamine], the melting point fell in the range of 205 to 207 °C.

Regarding `CCOCc1nc2c(N)nc(C)c(C)c2n1NCCCNC(=O)NC(C)C` [Example 16, 1-{3-[(4-Amino-2-ethoxymethyl-6,7-dimethyl-1H-imidazo[4,5-c]pyridin-1-yl)amino]propyl}-3-isopropylurea], the melting point fell in the range of 203 to 205 °C. The result for `CCOCc1nc2c(N)ncc(C)c2n1NC(C)C` [Example 2, 2-(Ethoxymethyl)-N^1-isopropyl-7-methyl-1H-imidazo[4,5-c]pyridine-1,4-diamine] reads 119 to 121 °C; that for `CCOCc1nc2c(N)nc(C)c(C)c2n1NC1CCCC1` [Example 46, N^1-Cyclopentyl-2-ethoxymethyl-6,7-dimethyl-1H-imidazo[4,5-c]pyridine-1,4-diamine], 130 to 132 °C. For `CCOCc1nc2c(N)nc(C)c(C)c2n1NC1CCN(S(C)(=O)=O)CC1` [Example 40, 2-(Ethoxymethyl)-6,7-dimethyl-N^1-[1-(methylsulfonyl)piperidin-4-yl]-1H-imidazo[4,5-c]pyridine-1,4-diamine], the melting point was 127 to 131 °C. In turn, `CCOCc1nc2c(N)nc(C)c(C)c2n1NC(C)C` [Example 1, 2-(Ethoxymethyl)-N^1-isopropyl-6,7-dimethyl-1H-imidazo[4,5-c]pyridine-1,4-diamine] displayed a melting point of 110 to 120 °C.

For the compound `CCc1nc2c(N)nc(C)c(C)c2n1NC1CCOCC1` [Example 48, 2-Ethyl-6,7-dimethyl-N^1-(tetrahydropyran-4-yl)-1H-imidazo[4,5-c]pyridine-1,4-diamine], the melting point lay within 191 to 193 °C.

The melting point is the temperature of the solid-liquid transition.
